Columns and labels:
[1] = biological target: T1, SmSOD (Streptococcus mutans serotype c, UniProt P09738); assay: SOD activity assay (inhibition of cytochrome c reduction, xanthine/xanthine oxidase method) with SmSOD; format: biochemical; conditions: for remaining activity at 50 µM: 50 µM compound; for remaining activity at 50 µM / remaining activity at 100 µM / IC50: ALS-31 derivatives, Table 2; for remaining activity at 50 µM / remaining activity at 100 µM: read-out: Residual SOD Activity (%) in the Presence of [Compound]; for remaining activity at 100 µM: 100 µM compound; for IC50: SmSOD activity, read-out: IC50; for effect on SmSOD activity (in words): screening concentrations or inhibition profile up to 300 µM
T1 construct: His-tail; made in house; host or cells: Escherichia coli BL21(DE3), vector vSmSOD (pET-22b(+)-derived)
T1 sequence (P09738 2-203): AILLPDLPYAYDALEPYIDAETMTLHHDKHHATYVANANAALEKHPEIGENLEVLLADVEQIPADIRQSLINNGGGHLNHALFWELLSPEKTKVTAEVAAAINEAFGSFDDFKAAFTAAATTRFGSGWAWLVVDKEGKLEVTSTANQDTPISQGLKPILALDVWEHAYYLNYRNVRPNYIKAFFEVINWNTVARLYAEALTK
Description: Purified recombinant forms of SmSOD and StSOD were obtained through a heterologous expression system constituted by the Escherichia coli BL21(DE3) strain transformed with appropriate expression vectors, vSmSOD [11] or vStSOD [12]. These pET-22b(+)- or pET-28b(+)-derived plasmids led to the production of recombinant forms of SmSOD or StSOD, respectively fused to a His-tail, useful for their one-step purification by affinity chromatography, as previously described [11, 12]. The improvement of Mn uptake by SmSOD was realised as previously described [11, 12, 13]. The resulting metal (Fe and Mn) content in the cambialistic enzyme was determined by graphite furnace atomic absorption spectrometry with a Shimadzu ACS-6100 auto sampler [46]. Fe-SOD from Escherichia coli (cat. SRP6107) and the Cu/Zn-SOD from bovine erythrocytes (cat. 574594) were purchased from Sigma–Aldrich. A recombinant form of the eukaryal Mn–SOD from rat mitochondria was prepared as previously described [19]. Protein concentration was determined by the Bradford method, using bovine serum albumin as standard [47]. […] One unit of SOD activity was defined as the amount of enzyme that caused 50% inhibition of cytochrome c reduction.

[2] = tested on: Streptococcus mutans ATCC-700610; assay: Crystal violet staining biofilm biomass assay; format: cell-based; conditions: Streptococcus mutans, ATCC700610, 24 h, read-out: inhibition of biofilm biomass formation
Experimental: (§1) The bacterial strain used for antimicrobial assays was Streptococcus mutans ATCC-700610. The strain was stored in 15% (v/v) glycerol stocks at −80 °C. Before each experiment, cells were subcultured from the stocks into Trypticase Soy Agar (TSA, cat. PA-254051.06) with 5% Sheep Blood (Becton Dickinson, Sparks, NV, USA) plates at 37 °C in 5% CO2 atmosphere for 48 h.
The crystal violet (CV) staining method was used to measure biofilm biomass formed in flat-bottomed 96-well microplates in the presence of ALS-31 or ALS-31-9, as described by Stepanović et al., with some modifications. A bacterial suspension of approximately 1.5 × 10^6 CFU/mL in BHI supplemented with 1% (w/v) glucose was prepared, and 100-µL aliquots of this suspension were incubated with 100 µL of serial dilutions of each compound. The microplate was incubated at 37 °C for 24 h, after which the non-adherent cells were gently aspirated and the wells gently rinsed with PBS (Sigma–Aldrich). The adhered biofilm was dried at 60 °C for 30 min and subsequently stained with 0.1% (w/v) crystal violet solution for 30 min. After washing with PBS and solubilization with absolute ethanol to release the dye from the biofilm, the plate was read at 570 nm in a spectrophotometer. The absorbance recorded was related to the amount of biofilm produced. The reduction in the mass of the biofilm was expressed as a percentage by using the formula [(Ac-At)/Ac] × 100, where Ac is the OD570 for the control wells and At is the OD570 in the presence of the tested compound.

[3] = tested on: Streptococcus mutans ATCC-700610; assay: Broth micro-dilution antibacterial assay (planktonic growth); format: cell-based; conditions: 24 h
Experimental: as §1
The antibacterial activity of compounds ALS-31 or ALS-31-9 was assayed in S. mutans cultures by a standard broth micro-dilution method in 96-well polystyrene plates using Brain-Heart Infusion broth (BHI, cat. 255003, Becton Dickinson, Sparks, NV, USA). One hundred microliters of bacterial suspension adjusted to approximately 1.5 × 10^6 CFU/mL were incubated with 100 µL of serial dilutions of the compounds dissolved in final 1.0% (v/v) DMSO as a vehicle. The plates were incubated at 37 °C in 5% CO2 atmosphere for 24 h under shaking (300 rpm). The medium turbidity was measured by a spectrophotometer at 595 nm (Bio-Rad Laboratories Inc., Hercules, CA, USA). Compound-free wells in 1.0% (v/v) DMSO were used as controls (100% planktonic growth), and antibacterial activity was expressed as a percentage of residual growth. Chlorhexidine acetate (CHX, cat. 51094, Sigma-Aldrich, St. Louis, MO, USA) solution (1 mg/mL) was prepared and included as control for the assay of S. mutans’ susceptibility (MIC referred to [51]). Each compound was tested in triplicate; each experiment was performed twice.

SMILES: CSCCC(NC(=O)COc1ccc2c3c(c(=O)oc2c1)CCC3)C(=O)O (stereo not drawn) [ALS-31-1]
- remaining activity at 50 µM [1]: 104%
- remaining activity at 100 µM [1]: 97.2%

SMILES: O=C(O)CCC(NC(=O)COc1ccc2c3c(c(=O)oc2c1)CCC3)C(=O)O (stereo not drawn) [ALS-31-2]
- remaining activity at 50 µM [1]: 89.8%
- remaining activity at 100 µM [1]: 113%

SMILES: CSCCC(NC(=O)CCNC(=O)COc1ccc2c3c(c(=O)oc2c1)CCC3)C(=O)O (stereo not drawn) [ALS-31-3]
- remaining activity at 50 µM [1]: 78.8%
- remaining activity at 100 µM [1]: 104%

SMILES: CSCCC(NC(=O)COc1cc(C)cc2oc(=O)c3c(c12)CCC3)C(=O)NCCC(=O)O (stereo not drawn) [ALS-31-4]
- remaining activity at 50 µM [1]: 92.6%
- remaining activity at 100 µM [1]: 96.8%

SMILES: CC(NC(=O)COc1ccc2c3c(c(=O)oc2c1)CCCC3)C(=O)NCC(=O)NCC(=O)O (stereo not drawn) [ALS-31-5]
- remaining activity at 50 µM [1]: 93.4%
- remaining activity at 100 µM [1]: 99.6%

SMILES: O=C(O)CCCNC(=O)COc1ccc2c3c(c(=O)oc2c1)CCCC3 [ALS-31-6]
- remaining activity at 50 µM [1]: 75.1%
- remaining activity at 100 µM [1]: 78%
- IC50 [1]: 127 ± 12 µM
- effect on SmSOD activity (in words) [1]: dose-dependent reduction

SMILES: O=C(O)CCNC(=O)COc1ccc2c3c(c(=O)oc2c1)CCCC3 [ALS-31-7]
- remaining activity at 50 µM [1]: 95.4%
- remaining activity at 100 µM [1]: 125%

SMILES: CSCCC(NC(=O)CCNC(=O)COc1cc2oc(=O)c3c(c2cc1C)CCCC3)C(=O)O (stereo not drawn) [ALS-31-8]
- remaining activity at 50 µM [1]: 69.2%
- remaining activity at 100 µM [1]: 76.9%
- IC50 [1]: 292 ± 30 µM
- effect on SmSOD activity (in words) [1]: dose-dependent reduction

SMILES: CCCC(NC(=O)COc1ccc2c3c(c(=O)oc2c1)CCCC3)C(=O)NCCCC(=O)O (stereo not drawn) [ALS-31-9]
- inhibition at 13.5 µM ([2]; 13.5 µM): 29.4%
- inhibition at 27.3 µM ([2]; 27.3 µM): 62.1%
- percentage of planktonic growth of S. mutans ([3]; 54 µM): 79.0 ± 4.6%
- percentage of planktonic growth of S. mutans ([3]; 108 µM): 39.5 ± 2.1%
- planktonic growth of S. mutans compared with 108 µM ([3]; 216 µM): no further reduction
- concentration up to which no antimicrobial activity is displayed in S. mutans suspensions [3]: ≤ 25 µM
- remaining activity at 50 µM [1]: 65.3%
- remaining activity at 100 µM [1]: 50.3%
- IC50 [1]: 64 ± 15 µM
- improved inhibition power on SmSOD compared to lead ALS-31 ([1]; ratio of IC50 values): 2.5 fold
- effect on SmSOD activity (in words) [1]: dose-dependent reduction

SMILES: CSCCC(NC(=O)COc1ccc2c3c(c(=O)oc2c1)CCCC3)C(=O)O (stereo not drawn) [ALS-31-10]
- remaining activity at 50 µM [1]: 75%
- remaining activity at 100 µM [1]: 68.9%
- IC50 [1]: 139 ± 8 µM
- effect on SmSOD activity (in words) [1]: dose-dependent reduction

SMILES: CCCC(NC(=O)COc1ccc2c3c(c(=O)oc2c1)CCCC3)C(=O)O (stereo not drawn) [ALS-31-11]
- remaining activity at 50 µM [1]: 83.7%
- remaining activity at 100 µM [1]: 125%

SMILES: O=C(O)CNC(=O)CNC(=O)COc1ccc2c3c(c(=O)oc2c1)CCCC3 [ALS-31-12]
- remaining activity at 50 µM [1]: 75.6%
- remaining activity at 100 µM [1]: 125%

From paper PMC9029323, “In Silico Identification of Novel Inhibitors Targeting the Homodimeric Interface of Superoxide Dismutase from the Dental Pathogen Streptococcus mutans” (Antioxidants, 2022)
